± gives the uncertainty stated by the source.
Assay: xn = mol fraction of the nth substance listed

CC(=O)[O-].CCCC[n+]1ccn(C)c1 + O
Settings | viscosity [mPa·s]
293.15 K, 100 kPa, x2 = 0.1843 | 559 ± 46
293.15 K, 100 kPa, x2 = 0.3889 | 298 ± 19
293.15 K, 100 kPa, x2 = 0.5951 | 124.3 ± 5.2
293.15 K, 100 kPa, x2 = 0.8004 | 32.1 ± 1
298.15 K, 100 kPa, x2 = 0 | 595 ± 50
298.15 K, 101 kPa, x1 = 0.03479 | 2.23 ± 0.14
298.15 K, 101 kPa, x1 = 0.03897 | 2.35 ± 0.14
298.15 K, 101 kPa, x1 = 0.04311 | 2.66 ± 0.14
303.15 K, 100 kPa, x2 = 0 | 400 ± 29
303.15 K, 100 kPa, x2 = 0.1843 | 262 ± 16
303.15 K, 100 kPa, x2 = 0.3889 | 150 ± 6.9
303.15 K, 100 kPa, x2 = 0.5951 | 68.8 ± 2.2
303.15 K, 100 kPa, x2 = 0.8004 | 19.69 ± 0.62
303.15 K, 101 kPa, x1 = 0.03479 | 2.18 ± 0.14
303.15 K, 101 kPa, x1 = 0.03897 | 2.29 ± 0.14
303.15 K, 101 kPa, x1 = 0.04311 | 2.63 ± 0.14
308.15 K, 101 kPa, x1 = 0.03479 | 2.16 ± 0.14
308.15 K, 101 kPa, x1 = 0.03897 | 2.25 ± 0.14
308.15 K, 101 kPa, x1 = 0.04311 | 2.56 ± 0.14
313.15 K, 100 kPa, x2 = 0 | 200 ± 11
313.15 K, 100 kPa, x2 = 0.0171 | 138.1 ± 5.2
313.15 K, 100 kPa, x2 = 0.1843 | 138.2 ± 6.2
313.15 K, 100 kPa, x2 = 0.3889 | 85 ± 3
313.15 K, 100 kPa, x2 = 0.5951 | 41.9 ± 1.3
313.15 K, 100 kPa, x2 = 0.8004 | 13.12 ± 0.41
313.15 K, 101 kPa, x1 = 0.03479 | 2.13 ± 0.14
313.15 K, 101 kPa, x1 = 0.03897 | 2.22 ± 0.14
313.15 K, 101 kPa, x1 = 0.04311 | 2.49 ± 0.14
318.15 K, 101 kPa, x1 = 0.03479 | 1.74 ± 0.14
318.15 K, 101 kPa, x1 = 0.03897 | 2.11 ± 0.14
318.15 K, 101 kPa, x1 = 0.04311 | 2.29 ± 0.14
323.15 K, 100 kPa, x2 = 0 | 111.7 ± 4.5
323.15 K, 100 kPa, x2 = 0.1843 | 79.7 ± 2.8
323.15 K, 100 kPa, x2 = 0.3889 | 51.8 ± 1.6
323.15 K, 100 kPa, x2 = 0.5951 | 26.97 ± 0.85
323.15 K, 100 kPa, x2 = 0.8004 | 9.09 ± 0.28
323.15 K, 101 kPa, x1 = 0.03479 | 1.58 ± 0.14
323.15 K, 101 kPa, x1 = 0.03897 | 2.07 ± 0.14
323.15 K, 101 kPa, x1 = 0.04311 | 2.26 ± 0.14
328.15 K, 101 kPa, x1 = 0.03479 | 1.51 ± 0.14
328.15 K, 101 kPa, x1 = 0.03897 | 1.91 ± 0.14
328.15 K, 101 kPa, x1 = 0.04311 | 2.02 ± 0.14
333.15 K, 100 kPa, x2 = 0 | 67.3 ± 2.2
333.15 K, 100 kPa, x2 = 0.01197 | 48.8 ± 1
333.15 K, 100 kPa, x2 = 0.1843 | 48.6 ± 1.6
333.15 K, 100 kPa, x2 = 0.3889 | 33.6 ± 1.1
333.15 K, 100 kPa, x2 = 0.5951 | 18.26 ± 0.57
333.15 K, 101 kPa, x1 = 0.03479 | 1.24 ± 0.14
333.15 K, 101 kPa, x1 = 0.03897 | 1.86 ± 0.14
333.15 K, 101 kPa, x1 = 0.04311 | 1.97 ± 0.14
343.15 K, 100 kPa, x2 = 0 | 41.6 ± 1.4
343.15 K, 100 kPa, x2 = 0.1843 | 32.4 ± 1
343.15 K, 100 kPa, x2 = 0.3889 | 23.31 ± 0.74
343.15 K, 100 kPa, x2 = 0.5951 | 13 ± 0.41
353.15 K, 100 kPa, x2 = 0 | 27.86 ± 0.91
353.15 K, 100 kPa, x2 = 0.1843 | 22.25 ± 0.71
353.15 K, 100 kPa, x2 = 0.3889 | 16.58 ± 0.53
353.15 K, 100 kPa, x2 = 0.5951 | 9.64 ± 0.3
363.15 K, 100 kPa, x2 = 0 | 19.87 ± 0.65
363.15 K, 100 kPa, x2 = 0.1843 | 15.93 ± 0.51
363.15 K, 100 kPa, x2 = 0.5951 | 7.37 ± 0.23
373.15 K, 100 kPa, x2 = 0 | 14.82 ± 0.48
373.15 K, 100 kPa, x2 = 0.1843 | 11.94 ± 0.38

O + CCCCCCCCCCCCCCn1cc[n+](C)c1.[Br-] + CC[N+](CC)(CC)CC.[Br-]
101 kPa, frequency 0.001 MHz, x2 = 0, x3 = 0
Settings | electrical conductivity [S/m]
298.15 K | 0.00046 ± 7e-05
308.15 K | 0.00115 ± 7e-05
318.15 K | 0.00157 ± 8e-05

COCC[n+]1ccn(C)c1.O=S(=O)([N-]S(=O)(=O)C(F)(F)F)C(F)(F)F + O
101 kPa, x1 = 0.838
Settings | electrical conductivity [S/m] | viscosity [mPa·s]
283 K | – | 66.6 ± 1.6
298.15 K | 0.58 | –

CC(=O)[O-].CCCC[n+]1ccn(C)c1 + NCCN1CCNCC1 + O
viscosity [mPa·s], 101 kPa
Settings | 298.15 K | 303.15 K | 308.15 K | 313.15 K | 318.15 K | 323.15 K | 328.15 K | 333.15 K
x1 = 0.03479, x2 = 0 | 2.23 ± 0.14 | 2.18 ± 0.14 | 2.16 ± 0.14 | 2.13 ± 0.14 | 1.74 ± 0.14 | 1.58 ± 0.14 | 1.51 ± 0.14 | 1.24 ± 0.14
x1 = 0.03897, x2 = 0 | 2.35 ± 0.14 | 2.29 ± 0.14 | 2.25 ± 0.14 | 2.22 ± 0.14 | 2.11 ± 0.14 | 2.07 ± 0.14 | 1.91 ± 0.14 | 1.86 ± 0.14
x1 = 0.04311, x2 = 0 | 2.66 ± 0.14 | 2.63 ± 0.14 | 2.56 ± 0.14 | 2.49 ± 0.14 | 2.29 ± 0.14 | 2.26 ± 0.14 | 2.02 ± 0.14 | 1.97 ± 0.14

NCC(=O)NCC(=O)O + CCCCCCCCCCCC[N+](C)(C)C.[Br-] + O
100 kPa
Settings | electrical conductivity [S/m]
293.15 K, x1 = 0.0001801, x2 = 0.0003553 | 0.093 ± 0.01
293.15 K, x1 = 0.0001801, x2 = 0.0003787 | 0.095 ± 0.01
293.15 K, x1 = 0.0001801, x2 = 0.0004256 | 0.099 ± 0.011
293.15 K, x1 = 0.0001802, x2 = 2.706e-05 | 0.0098 ± 0.0013
298.15 K, x1 = 9.009e-05, x2 = 2.704e-05 | 0.0082 ± 0.0011
298.15 K, x1 = 0.0001801, x2 = 0.0003553 | 0.096 ± 0.01
298.15 K, x1 = 0.0001801, x2 = 0.0003787 | 0.097 ± 0.01
298.15 K, x1 = 0.0001801, x2 = 0.0004021 | 0.099 ± 0.01
303.15 K, x1 = 1.802e-05, x2 = 2.703e-05 | 0.0078 ± 0.001
303.15 K, x1 = 9.009e-05, x2 = 2.704e-05 | 0.0097 ± 0.0013
308.15 K, x1 = 1.802e-05, x2 = 2.703e-05 | 0.0082 ± 0.0011
308.15 K, x1 = 9.005e-05, x2 = 0.0004487 | 0.098 ± 0.01
313.15 K, x1 = 1.801e-05, x2 = 0.0005368 | 0.093 ± 0.01
313.15 K, x1 = 1.802e-05, x2 = 2.703e-05 | 0.0087 ± 0.0013
313.15 K, x1 = 9.006e-05, x2 = 0.0004019 | 0.098 ± 0.01
313.15 K, x1 = 0.0001801, x2 = 0.0003318 | 0.099 ± 0.01

O + CCCCCCCCCCCCCC[n+]1ccccc1.O=C([O-])C(O)c1ccccc1 + NCC(=O)NCC(=O)O
101 kPa, x2 = 0, x3 = 0
Settings | electrical conductivity [S/m]
293.15 K | 0.00012
298.15 K | 0.00015
303.15 K | 0.00016
308.15 K | 0.00017
313.15 K | 0.00019

Nc1ccccc1 + CCCC[n+]1ccn(C)c1.O=S(=O)([N-]S(=O)(=O)C(F)(F)F)C(F)(F)F
viscosity [mPa·s], 100 kPa
Settings | 288.15 K | 293.15 K | 298.15 K | 303.15 K | 308.15 K | 313.15 K | 318.15 K | 323.15 K | 328.15 K | 333.15 K
x1 = 0.1 | 66.3 ± 2.9 | 52.2 ± 2.3 | 42.1 ± 1.9 | 34.3 ± 1.5 | 28.6 ± 1.3 | 23.9 ± 1.1 | 20.44 ± 0.91 | 17.56 ± 0.78 | 15.22 ± 0.68 | 13.34 ± 0.59
x1 = 0.2 | 55.9 ± 2.5 | 44.1 ± 2 | 35.9 ± 1.6 | 29.3 ± 1.3 | 24.5 ± 1.1 | 20.59 ± 0.91 | 17.66 ± 0.78 | 15.22 ± 0.67 | 13.24 ± 0.59 | 11.63 ± 0.52
x1 = 0.3029 | 46.5 ± 2.1 | 36.8 ± 1.6 | 30.1 ± 1.3 | 24.7 ± 1.1 | 20.77 ± 0.92 | 17.48 ± 0.77 | 15.05 ± 0.67 | 13.02 ± 0.58 | 11.36 ± 0.5 | 10.01 ± 0.44
x1 = 0.4013 | 38.5 ± 1.7 | 30.6 ± 1.4 | 25.1 ± 1.1 | 20.73 ± 0.92 | 17.48 ± 0.77 | 14.76 ± 0.65 | 12.76 ± 0.57 | 11.06 ± 0.49 | 9.68 ± 0.43 | 8.56 ± 0.38
x1 = 0.5024 | 31.1 ± 1.4 | 24.8 ± 1.1 | 20.42 ± 0.9 | 16.98 ± 0.75 | 14.38 ± 0.64 | 12.17 ± 0.54 | 10.57 ± 0.47 | 9.19 ± 0.41 | 8.08 ± 0.36 | 7.16 ± 0.32
x1 = 0.6002 | 24.6 ± 1.1 | 19.71 ± 0.87 | 16.28 ± 0.72 | 13.64 ± 0.6 | 11.58 ± 0.51 | 9.84 ± 0.44 | 8.59 ± 0.38 | 7.5 ± 0.33 | 6.61 ± 0.29 | 5.88 ± 0.26
x1 = 0.7 | 18.38 ± 0.81 | 14.86 ± 0.66 | 12.4 ± 0.55 | 10.47 ± 0.46 | 8.92 ± 0.4 | 7.61 ± 0.34 | 6.68 ± 0.3 | 5.86 ± 0.26 | 5.19 ± 0.23 | 4.64 ± 0.2
x1 = 0.8002 | 13.46 ± 0.6 | 10.93 ± 0.48 | 9.22 ± 0.41 | 7.8 ± 0.34 | 6.71 ± 0.3 | 5.77 ± 0.26 | 5.09 ± 0.22 | 4.5 ± 0.2 | 4 ± 0.18 | 3.59 ± 0.16
x1 = 0.9 | 8.74 ± 0.39 | 7.19 ± 0.32 | 6.1 ± 0.27 | 5.2 ± 0.23 | 4.5 ± 0.2 | 3.9 ± 0.17 | 3.46 ± 0.15 | 3.08 ± 0.14 | 2.76 ± 0.12 | 2.48 ± 0.11
x1 = 1 | 5.32 ± 0.23 | 4.41 ± 0.19 | 3.74 ± 0.16 | 3.2 ± 0.14 | 2.78 ± 0.12 | 2.45 ± 0.11 | 2.159 ± 0.096 | 1.927 ± 0.085 | 1.738 ± 0.077 | 1.577 ± 0.07

CCC[N+]1(C)CCCC1.O=S(=O)([N-]S(=O)(=O)C(F)(F)F)C(F)(F)F + CCC[N+]1(C)CCCC1.N#C[N-]C#N
101 kPa, x2 = 0
Settings | electrical conductivity [S/m] | viscosity [mPa·s]
313.15 K | 0.678 ± 0.068 | 34.4 ± 3.6
353.15 K | – | 11.6 ± 1.2

Reference: the CheMixHub ionic liquid set
